Measurements from publication PMC6318274, “Lattice engineering enables definition of molecular features allowing for potent small-molecule inhibition of HIV-1 entry” (Nature Communications, 2019).
Where two headings read alike, the source gives them in different places.

Test system: HIV-1 Env-pseudoviruses (208-strain panel)
Experiment: microbe, parasite or virus in culture
Type: cell-based
Conditions: Human immunodeficiency virus 1, TZM-bl, read-out: IC50
Experimental: Neutralization was measured using single-round-of-infection HIV-1 Env-pseudoviruses and TZM-bl target cells (ARP Cat No. #8129)[44],[45]. Compounds were prepared at 400 μM with 4% DMSO (dimethyl sulfoxide) in PBS (phosphate-buffered saline) and diluted 20 times as the starting concentration for serial dilution in the neutralization assays. […] After incubation at 37 °C for 2 days, infection of target cells was measured by luciferase activity. Neutralization curves were fit by nonlinear regression using a five-parameter hill slope equation[45].

Question: Which results are given for `COc1cnc(-c2csc(C(=O)NCCO)n2)c2[nH]cc(C(=O)C(=O)N3CCC(=C(C#N)c4ccccc4)CC3)c12` [BMS-818251]?
Answer: IC50 (CNE5, clade AE): 465 nM; IC50 (CNE7, clade BC): 0.4 nM; IC50 (CNE8, clade AE): 2680 nM; IC50 (CNE10 (Clade B)): 0.1 nM; IC50 (CNE12, clade B): 2 nM; IC50 (CNE14, clade B): 1120 nM; IC50 (CNE15, clade BC): 0.1 nM; IC50 (CNE19, clade BC): 0.1 nM; IC50 (CNE20 (Clade BC)): 6 nM; IC50 (CNE21, clade BC): 0.3 nM; IC50 (CNE30, clade C): 0.2 nM; IC50 (CNE31, clade C): 1 nM; IC50 (CNE40, clade BC): 1 nM; IC50 (CNE55, clade AE): 282 nM; IC50 (CNE56 (Clade AE)): 797 nM; IC50 (CNE57, clade B): 0.3 nM; IC50 (CNE58, clade C): 0.2 nM; IC50 (CNE59, clade AE): 506 nM; IC50 (Ce1176.A3, clade C): 0.9 nM; IC50 (DJ263.8 (Clade AG)): 0.2 nM; IC50 (DU123.06, clade C): 0.3 nM; IC50 (DU151.02, clade C): 0.2 nM; IC50 (DU156.12 (Clade C)): 0.2 nM; IC50 (DU172.17, clade C): 0.1 nM; IC50 (DU422.01, clade C): 0.7 nM; IC50 (HO86.8, clade B): 4 nM; IC50 (HT593.1, clade B): 0.1 nM; IC50 (JRFL.JB, clade B): 0.1 nM; IC50 (KER2008.12 (Clade A)): 15 nM; IC50 (KER2018.11, clade A): 0.3 nM; IC50 (KNH1209.18, clade A): 0.4 nM; IC50 (M02138, clade AE): 28 nM; IC50 (MB201.A1 (Clade A)): 9 nM; IC50 (MB539.2B7, clade A): 2 nM; IC50 (MI369.A5, clade A): 0.3 nM; IC50 (MN.3, clade B): 0.6 nM; IC50 (MS208.A1, clade A): 0.3 nM; IC50 (MW965.26, clade C): 6 nM; IC50 (NKU3006.ec1 (Clade D)): 0.2 nM; IC50 (P0402.c2.11 (Clade G)): 0.2 nM; IC50 (P1981.C5.3, clade G): 0.5 nM; IC50 (PVO.04 (Clade B)): 0.4 nM; IC50 (Q23.17, clade A): 0.5 nM; IC50 (Q168.a2, clade AD): 3 nM; IC50 (Q259.17, clade A): 7 nM; IC50 (Q461.e2, clade AD): 0.3 nM; IC50 (Q769.d22, clade A): 1 nM; IC50 (Q769.h5, clade A): 2 nM; IC50 (Q842.d12, clade A): 0.4 nM; IC50 (QH209.14M.A2, clade A): 60 nM; IC50 (QH0515.01, clade B): 31 nM; IC50 (QH0692.42, clade B): 0.7 nM; IC50 (R1166.c1, clade AE): > 20000 nM; IC50 (R2184.c4, clade AE): 2040 nM; IC50 (R3265.c6 (Clade AE)): 122 nM; IC50 (REJO.67 (Clade B)): 590 nM; IC50 (RHPA.7, clade B): 0.5 nM; IC50 (RW020.2, clade A): 0.7 nM; IC50 (SF162.LS, clade B): 0.1 nM; IC50 (SO18.18, clade C): 0.2 nM; IC50 (SS1196.01, clade B): 579 nM; IC50 (T33-7, clade AG): 252 nM; IC50 (T250-4, clade AG): 0.4 nM; IC50 (T251-18, clade AG): 0.6 nM; IC50 (T253-11 (Clade AG)): 0.1 nM; IC50 (T255-34, clade AG): 2 nM; IC50 (T257-31, clade AG): 1 nM; IC50 (T266-60, clade AG): 42 nM; IC50 (T278-50, clade AG): 0.1 nM; IC50 (T280-5 (Clade AG)): 0.4 nM; IC50 (TH023.6, clade AE): > 20000 nM; IC50 (TH966.8, clade AE): 923 nM; IC50 (TH976.17, clade AE): 1280 nM; IC50 (THRO.18, clade B): 0.2 nM; IC50 (TRJO.58, clade B): 0.1 nM; IC50 (TRO.11, clade B): 127 nM; IC50 (TV1.29, clade C): 1 nM; IC50 (TZA125.17, clade C): 1 nM; IC50 (TZBD.02, clade C): 0.3 nM; IC50 (UG021.16, clade D): 0.2 nM; IC50 (UG024.2, clade D): > 20000 nM; IC50 (UG037.8, clade A): 10 nM; IC50 (WITO.33, clade B): 0.8 nM; IC50 (X1254.c3, clade G): 0.2 nM; IC50 (X1632.S2.B10, clade G): 0.3 nM; IC50 (X2088.c9, clade G): 0.3 nM; IC50 (X2131.C1.B5, clade G): 1 nM; IC50 (X2278.C2.B6, clade B): 440 nM; IC50 (YU2.DG, clade B): 0.5 nM; IC50 (ZA012.29, clade C): 0.5 nM; IC50 (ZM53.12, clade C): 0.4 nM; IC50 (ZM55.28a, clade C): 0.3 nM; IC50 (ZM106.9 (Clade C)): 2 nM; IC50 (ZM109.4, clade C): 0.1 nM; IC50 (ZM135.10a, clade C): 153 nM; IC50 (ZM176.66, clade C): 1 nM; IC50 (ZM197.7, clade C): 0.2 nM; IC50 (ZM214.15, clade C): 0.2 nM; IC50 (ZM215.8, clade C): 0.1 nM; IC50 (ZM233.6, clade C): 0.1 nM; IC50 (ZM249.1, clade C): 0.4 nM; IC50 ([…], clade C): 0.1 nM; IC50 ([…], clade G): 0.6 nM
